Tests used:
Assay in all cases: combination Emax (second highest fraction inhibited in the dose matrix, 72 h); higher = more inhibition; extreme values may be limits of the assay
[1] = system: LNCaP-Clone-FGC (Prostate Carcinoma)
How it was run: (§1)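 Cell lines grown in DMEM/F12 or RPMI with 10% FBS were plated in 1536-well plates and held 24 hours at 37°C, 5% CO2 before 72 hours of exposure to two-drug dose matrices, with DMSO typically at 0.2%. CellTiter-Glo 2.0 luminescence gave viability, which was converted to inhibition. Vehicle wells were set to 0 and blank wells to 1. Combination Emax is the second-highest inhibition in the matrix, and Bliss excess is the observed combination effect minus the expected EA + EB − EA·EB, where EA and EB are the single-agent effects.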

[2] = system: COLO-205 (Colorectal Carcinoma)
How it was run: as §1

[3] = system: HuP-T4 (Pancreatic Carcinoma)
How it was run: as §1

[4] = system: SK-ES-1 (Ewing's Sarcoma)
How it was run: as §1

[5] = system: Daoy (Other Solid Carcinomas)
How it was run: as §1

[6] = system: EC-GI-10 (Esophageal Squamous Cell Carcinoma)
How it was run: as §1

[7] = system: B-CPAP (Thyroid Gland Carcinoma)
How it was run: as §1

[8] = system: HCC1806 (Breast Carcinoma)
How it was run: as §1

[9] = system: RC-K8 (B-Cell Non-Hodgkin's Lymphoma)
How it was run: as §1

[10] = system: CCRF-CEM (T-Lymphoblastic Leukemia)
How it was run: as §1

[11] = system: KELLY (Neuroblastoma)
How it was run: as §1

[12] = system: NCI-H2085 (Non-Small Cell Lung Carcinoma)
How it was run: as §1

[13] = system: ME-1 (Acute Myeloid Leukemia)
How it was run: as §1

[14] = system: LS-180 (Colorectal Carcinoma)
How it was run: as §1

[15] = system: UM-UC-3 (Bladder Carcinoma)
How it was run: as §1

[16] = system: HT-1376 (Bladder Carcinoma)
How it was run: as §1

[17] = system: DoTc2-4510 (Cervical Carcinoma)
How it was run: as §1

[18] = system: HCC-78 (Lung Adenocarcinoma)
How it was run: as §1

[19] = system: Calu-3 (Lung Adenocarcinoma)
How it was run: as §1

[20] = system: CaR-1 (Colorectal Carcinoma)
How it was run: as §1

| SMILES | combination Emax [1] | combination Emax [2] | combination Emax [3] | combination Emax [4] | combination Emax [5] | combination Emax [6] | combination Emax [7] | combination Emax [8] | combination Emax [9] | combination Emax [10] | combination Emax [11] | combination Emax [12] | combination Emax [13] | combination Emax [14] | combination Emax [15] | combination Emax [16] | combination Emax [17] | combination Emax [18] | combination Emax [19] | combination Emax [20] |
| --- | --- | --- | --- | --- | --- | --- | --- | --- | --- | --- | --- | --- | --- | --- | --- | --- | --- | --- | --- | --- |
| COc1nnc2ccc(N3CCC(c4ccc(OCCN5CCN(C)C(=O)[C@H]5C)cc4)CC3)nn12 [AZD5153] + CN(CC[C@H](CSC1=CC=CC=C1)NC2=C(C=C(C=C2)S(=O)(=O)NC(=O)C3=CC=C(C=C3)N4CCC(CC4)[C@H](C5=CC=CC=C5C6=CC=C(C=C6)Cl)O)S(=O)(=O)C(F)(F)F)CCO [AZD4320] (first compound max 1 µM, 7x7, partner max 1 µM) | 0.747 | 0.95 | 0.479 | 0.871 | 0.627 | 0.275 | 0.925 | 0.588 | 1 | – | – | – | – | – | – | – | – | – | – | – |
| Cc1c2c(nn1C)CSCc1cc(n(C)n1)CSc1cc(c3ccccc3c1)OCCCc1c(C(=O)O)n(C)c3c-2c(Cl)ccc13 [AZD5991] + C1CN(CCC1(C(=O)N[C@@H](CCO)C2=CC=C(C=C2)Cl)N)C3=NC=NC4=C3C=CN4 [Capivasertib] (first compound max 1 µM, 7x7, partner max 3 µM) | 0.997 | 0.313 | 0.351 | 0.854 | 0.345 | 0.775 | – | 0.528 | 0.161 | 0.637 | 0.676 | 0.262 | 0.772 | 0.315 | 0.216 | 0.146 | 0.355 | 0.228 | 0.182 | 0.223 |
| Cc1c2c(nn1C)CSCc1cc(n(C)n1)CSc1cc(c3ccccc3c1)OCCCc1c(C(=O)O)n(C)c3c-2c(Cl)ccc13 [AZD5991] + C[C@@H](Nc1cc(F)cc(F)c1)c1cc(C(=O)N(C)C)cc2c(=O)cc(N3CCOCC3)oc12 [AZD8186] (first compound max 1 µM, 7x7, partner max 3 µM) | 0.894 | 0.14 | 0.442 | 0.866 | 0.391 | 0.559 | 0.227 | 0.6 | 0.2 | 0.27 | 0.726 | 0.691 | 0.787 | – | 0.311 | 0.225 | 0.384 | 0.413 | 0.175 | 0.174 |
| Cc1cc2ncnn2cc1Nc1ncc2c(n1)n(C1CCOCC1)c(=O)n2C [AZD7648] + C[C@@H]1COCCN1C2=NC(=NC(=C2)C3(CC3)[S@](=N)(=O)C)C4=C5C=CNC5=NC=C4 [AZD6738] (first compound max 10 µM, 7x7, partner max 10 µM) | 0.703 | 0.266 | 0.358 | 0.816 | 0.784 | 0.517 | 0.439 | 0.928 | – | 0.997 | 0.955 | 0.608 | 0.378 | 0.754 | 0.41 | 0.546 | 0.746 | 0.635 | 0.291 | 0.649 |
| Cc1cc2ncnn2cc1Nc1ncc2c(n1)n(C1CCOCC1)c(=O)n2C [AZD7648] + O=C(c1cc(Cc2n[nH]c(=O)c3ccccc23)ccc1F)N1CCN(C(=O)C2CC2)CC1 [Olaparib] (first compound max 10 µM, 7x7, partner max 10 µM) | 0.533 | 0.0328 | 0.141 | 0.923 | 0.357 | 0.341 | 0.265 | 0.142 | – | 0.454 | 0.362 | 0.036 | 0.172 | 0.338 | 0.145 | 0.0682 | 0.277 | 0.242 | 0.0691 | 0.111 |
| COc1cccc2c1C(=O)c1c(O)c3c(c(O)c1C2=O)C[C@@](O)(C(=O)CO)C[C@@H]3O[C@H]1C[C@H](N)[C@H](O)[C@H](C)O1 [Doxorubicin] + Cc1cc2ncnn2cc1Nc1ncc2c(n1)n(C1CCOCC1)c(=O)n2C [AZD7648] (first compound max 1 µM, 7x7, partner max 10 µM) | 0.819 | 0.727 | 0.657 | 0.983 | 0.875 | 0.693 | 0.941 | 0.919 | – | 1 | 0.789 | 0.546 | 0.355 | 0.736 | 0.802 | 0.182 | 0.844 | 0.751 | 0.301 | 0.807 |
| COc1cccc(OCCCN)c1-c1cc(Nc2cnc(C#N)cn2)n[nH]1 [Prexasertib] + C=CCn1c(=O)c2cnc(Nc3ccc(N4CCN(C)CC4)cc3)nc2n1-c1cccc(C(C)(C)O)n1 [AZD1775] (first compound max 1 µM, partner max 1 µM) | 0.846 | 0.908 | 0.882 | 1 | 0.985 | 0.956 | 0.874 | 0.983 | – | 1 | 1 | 0.94 | 0.599 | 0.819 | 0.807 | 0.422 | 0.906 | 0.793 | 0.482 | 0.797 |
| COc1cccc(OCCCN)c1-c1cc(Nc2cnc(C#N)cn2)n[nH]1 [Prexasertib] + CN(C)CCCOc1ccc(-c2ccc3ncc4c(c3c2)n(C2CCOCC2)c(=O)n4C)cn1 [AZD0156] (first compound max 1 µM, 7x7, partner max 1 µM) | 0.827 | 0.673 | 0.84 | 0.948 | 0.958 | 0.735 | 0.686 | 0.967 | – | 1 | 1 | 0.92 | 0.622 | 0.789 | 0.537 | 0.471 | 0.89 | 0.685 | 0.409 | 0.627 |
| COc1cccc(OCCCN)c1-c1cc(Nc2cnc(C#N)cn2)n[nH]1 [Prexasertib] + C[C@@H]1COCCN1C2=NC(=NC(=C2)C3(CC3)[S@](=N)(=O)C)C4=C5C=CNC5=NC=C4 [AZD6738] (first compound max 1 µM, 7x7, partner max 10 µM) | 0.842 | 0.565 | 0.808 | 0.944 | 0.956 | 0.713 | 0.742 | 0.988 | – | 1 | 1 | 0.872 | 0.633 | 0.819 | 0.615 | 0.503 | 0.88 | 0.744 | 0.405 | 0.696 |
| COc1cccc(OCCCN)c1-c1cc(Nc2cnc(C#N)cn2)n[nH]1 [Prexasertib] + Cc1cc2ncnn2cc1Nc1ncc2c(n1)n(C1CCOCC1)c(=O)n2C [AZD7648] (first compound max 1 µM, 7x7, partner max 10 µM) | 0.83 | 0.675 | 0.839 | 0.964 | 0.965 | 0.713 | 0.73 | 0.978 | – | 1 | 1 | 0.825 | 0.622 | 0.789 | 0.56 | 0.571 | 0.86 | 0.736 | 0.416 | 0.67 |
| COc1cccc(OCCCN)c1-c1cc(Nc2cnc(C#N)cn2)n[nH]1 [Prexasertib] + O=C(c1cc(Cc2n[nH]c(=O)c3ccccc23)ccc1F)N1CCN(C(=O)C2CC2)CC1 [Olaparib] (first compound max 1 µM, 7x7, partner max 10 µM) | 0.851 | 0.573 | 0.851 | 1 | 0.983 | 0.78 | 0.763 | 0.999 | – | 1 | 0.98 | 0.587 | 0.61 | 0.724 | 0.629 | 0.479 | 0.875 | 0.718 | 0.381 | 0.638 |
| COc1cc2c(cc1OCCCCCOc1cc3c(cc1OC)C(=O)N1C=C(C)C[C@H]1C=N3)N=C[C@@H]1CC(C)=CN1C2=O [SG3199] + O=C(c1cc(Cc2n[nH]c(=O)c3ccccc23)ccc1F)N1CCN(C(=O)C2CC2)CC1 [Olaparib] (first compound max 0.001 µM, 7x7, partner max 10 µM) | 0.416 | 0.0813 | 0.0469 | 0.917 | 0.42 | 0.198 | 0.217 | 0.212 | – | 0.257 | 0.375 | 0.059 | 0.163 | 0.181 | 0.132 | 0.121 | 0.321 | 0.101 | 0.0759 | 0.0995 |
| CCc1c2c(nc3ccc(O)cc13)-c1cc3c(c(=O)n1C2)COC(=O)[C@]3(O)CC [SN-38] + CN(C)CCCOc1ccc(-c2ccc3ncc4c(c3c2)n(C2CCOCC2)c(=O)n4C)cn1 [AZD0156] (first compound max 0.3 µM, 7x7, partner max 1 µM) | 0.76 | 0.509 | 0.96 | 1 | 1 | 0.776 | 0.867 | 0.91 | – | 1 | 0.869 | 0.221 | 0.571 | 0.713 | 0.978 | 0.118 | 0.972 | 0.924 | 0.319 | 0.876 |
| C[C@@H](c1ccc2nccn2c1)n1nnc2ncc(-c3cnn(C)c3)nc21 [Savolitinib] + CN(CC[C@H](CSC1=CC=CC=C1)NC2=C(C=C(C=C2)S(=O)(=O)NC(=O)C3=CC=C(C=C3)N4CCC(CC4)[C@H](C5=CC=CC=C5C6=CC=C(C=C6)Cl)O)S(=O)(=O)C(F)(F)F)CCO [AZD4320] (first compound max 1 µM, 7x7, partner max 1 µM) | 0.258 | 0.566 | 0.124 | 0.758 | 0.139 | 0.27 | 0.276 | 0.436 | 0.504 | – | – | – | – | – | – | – | – | – | – | – |

— the supplement of paper PMC11061612
